pIC50: −log10 of the molar value.
Tested on: B cell receptor-mediated activation of B cells in human whole blood (CD69 expression)
Test: cells
Conditions: 20 h, read-out: HWB IC50
Protocol: After the incubation the plates were read on a BMG Pherastar Fluorescent plate reader (or equivalent) and used to measure the emission energy from the europium donor fluorophore (620 nm emission) and the FRET (665 nm emission). The negative control well values were averaged to obtain the mean minimum. The positive “no inhibitor” control wells were averaged to obtain the mean maximum. […] The mean IC50 and standard deviation will be derived from duplicate curves (singlet inhibition curves from two independent dilutions) using Microsoft Excel. Inhibition of B Cell Activation in Whole Blood Measured by CD69 Expression
Human whole blood (HWB) is obtained from healthy volunteers, with the following restrictions: 24 hr drug-free, non-smokers. Blood is collected by venipuncture into Vacutainer tubes anticoagulated with sodium heparin. Test compounds are diluted to ten times the desired starting drug concentration in PBS (20×), followed by three-fold serial dilutions in 10% DMSO in PBS to produce a nine point dose-response curve. […] HWB (100 μl) is added to each well, and after mixing the plates are incubated at 37 C, 5% CO2, 100% humidity for 30 minutes. […]
Using appropriate excitation and emission wavelengths for the fluorophores used, data are acquired and percent positive cell values are obtained using Cell Quest Software. Results are initially analyzed by FACS analysis software (Flow Jo).

Row | SMILES | pIC50
1 | Cn1c2c(cc(Nc3ccc(C(=O)N4CCOCC4)cn3)c1=O)-c1cccc(-n3ncc4cccc(F)c4c3=O)c1C[C@H](O)C2 [Compound 6] | 5.36
2 | CN1CCC[C@H]1c1ccc(Nc2cc3c(n(C)c2=O)CC(O)Cc2c-3cccc2-n2ncc3cc(C(C)(C)C)cc(F)c3c2=O)nc1 (some centres unmarked) [Compound 2] | 7.31
